Measured values from article PMC10145651, “Modulation of the 5-Lipoxygenase Pathway by Chalcogen-Containing Inhibitors of Leukotriene A4 Hydrolase” (International Journal of Molecular Sciences, 2023).
“And” between values parts separate entries of the source, which are not always exact repeats. Equal entries are not always repeated. Where two headings read alike, the source gives them in different places.

How the values were obtained:
LTA4H [1] = molecular target: T1, LTA4H (Homo sapiens, UniProt P09960); assay: Thermal shift assay with differential scanning fluorimetry; type: binding; set-up: made in house; host or cells: Escherichia coli JM101; conditions: for Tm of LTA4H upon the addition of inhibitor: 0 to 200 µM inhibitor, increased from 57.5 °C without inhibitor
T1 sequence (P09960 1-611): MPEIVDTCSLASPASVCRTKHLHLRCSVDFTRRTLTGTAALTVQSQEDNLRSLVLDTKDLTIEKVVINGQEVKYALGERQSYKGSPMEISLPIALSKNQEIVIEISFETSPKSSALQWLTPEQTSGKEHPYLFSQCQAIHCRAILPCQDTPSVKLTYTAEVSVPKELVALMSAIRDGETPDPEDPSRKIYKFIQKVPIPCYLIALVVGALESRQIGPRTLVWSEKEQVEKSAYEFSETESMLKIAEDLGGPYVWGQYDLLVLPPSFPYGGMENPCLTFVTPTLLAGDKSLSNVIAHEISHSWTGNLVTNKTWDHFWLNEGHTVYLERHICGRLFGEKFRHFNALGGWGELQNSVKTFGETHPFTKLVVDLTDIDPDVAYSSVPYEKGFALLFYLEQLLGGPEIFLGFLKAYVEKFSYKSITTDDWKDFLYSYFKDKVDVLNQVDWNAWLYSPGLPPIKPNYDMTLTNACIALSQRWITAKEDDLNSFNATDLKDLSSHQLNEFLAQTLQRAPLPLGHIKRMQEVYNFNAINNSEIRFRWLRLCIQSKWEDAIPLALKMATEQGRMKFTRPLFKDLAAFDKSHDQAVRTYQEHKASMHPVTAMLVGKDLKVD
Description: DSF, also known as the thermal shift assay, was carried out in 25 mM Tris-HCl pH 7.8 containing 50 ng/µL LTA4H, 2X SYPRO Orange (Life Technologies, Carlsbad, CA, USA), 3% DMSO or 0–300 µM of an inhibitor. The assay was performed in a white 96-well Multiplate PCR Plate (Bio-Rad, Hercules, CA, USA) covered with the iCycler iQ Optical tape (Bio-Rad, Hercules, CA, USA). The total volume per well was 25 μL, consisting of 1 μL SYPRO Orange solution. Relative fluorescence intensities (RFU) were recorded with a C1000 Touch Thermal Cycler (Bio-Rad, Hercules, CA, USA) and a CFX-96 Real-Time System. […] The melting temperature (Tm) for each condition were obtained from the first derivative of melting curves and the affinity (Kd) and stability (Kb) values were calculated based on the Tm and concentration–response curves.

5-LOX = molecular target: T2, 5-LOX (Homo sapiens, UniProt P09917); assay: Inhibition assay with recombinant 5-LOX; type: biochemical; set-up: made in house; host or cells: Escherichia coli BL21; conditions: 20 µM AA, 2 mM CaCl2
T2 sequence (P09917 1-674): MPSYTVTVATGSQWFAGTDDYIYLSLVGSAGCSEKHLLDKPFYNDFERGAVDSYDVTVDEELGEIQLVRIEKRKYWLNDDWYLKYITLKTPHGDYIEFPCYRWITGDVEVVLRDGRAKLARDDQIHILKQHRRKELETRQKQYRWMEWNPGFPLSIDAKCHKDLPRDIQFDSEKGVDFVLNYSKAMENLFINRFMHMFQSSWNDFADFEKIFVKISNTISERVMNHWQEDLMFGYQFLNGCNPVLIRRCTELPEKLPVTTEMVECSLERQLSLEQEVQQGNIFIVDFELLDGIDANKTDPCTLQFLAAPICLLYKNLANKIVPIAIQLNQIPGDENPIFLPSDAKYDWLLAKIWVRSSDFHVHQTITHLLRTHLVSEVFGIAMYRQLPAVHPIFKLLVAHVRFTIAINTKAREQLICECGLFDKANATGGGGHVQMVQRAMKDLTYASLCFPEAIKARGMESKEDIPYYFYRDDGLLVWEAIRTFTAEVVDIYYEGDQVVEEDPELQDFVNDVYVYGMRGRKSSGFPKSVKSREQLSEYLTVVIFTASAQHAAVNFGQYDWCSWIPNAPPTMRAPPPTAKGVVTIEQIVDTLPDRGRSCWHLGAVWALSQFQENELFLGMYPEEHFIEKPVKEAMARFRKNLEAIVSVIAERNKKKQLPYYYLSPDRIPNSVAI
Description: Escherichia coli BL21 cells were transformed with the pT3-5-LO vector and human recombinant 5-LOX was expressed overnight at 30 °C as previously described. […] The supernatant was loaded on an ATP-agarose column and washed with 50 mM phosphate buffer (PB) containing 1 mM EDTA. Protein fractions were eluted with PB supplemented with 1 mM EDTA and 20 mM ATP. Aliquots of semi-purified 5-LOX were diluted with PBS containing 1 mM EDTA and used immediately in incubations.
Aliquots of 5-LOX (0.5 μg) were pre-incubated with test compounds or a vehicle (0.1%, v/v) for 10 min at 4 °C. […] The reaction was stopped after 10 min by addition of 1 vol of ice-cold methanol. Formed metabolites, i.e., LTB4, trans- and epi-trans-LTB4, and 5S-HETE, were analyzed with reverse-phase HPLC using a C18 RP Radial PAK column (Waters) as described previously.

LTA4H [2] = molecular target: T1, LTA4H; assay: Isothermal titration calorimetry with LTA4H; type: binding; set-up: made in house; host or cells: Escherichia coli JM101; conditions: 25 mM Tris pH 7.8, 3% DMSO, 25 °C
Description: ITC was performed with an iTC200 calorimeter (MicroCal Inc., Northampton, MA, USA) equipped with a […] sample cell. Measurements were performed in 25 mM Tris-HCl pH 7.8 supplemented with 3% DMSO at 25 °C. […] After the ITC system was equilibrated, the initial injection of an inhibitor was performed in 0.5–1.0 µL followed by 15 injections in 2.5 µL. The time between each injection was 1.5–3.0 min to ensure the complete equilibration of the system. Collected data were analyzed by MicroCal PEAK-ITC Analysis Software. Control experiments were performed with identical conditions using only inhibitor, protein or buffer with 3% DMSO.

[3] = from Tm concentration–response curves, read-out: Kd by differential scanning fluorimetry
[4] = read-out: IC50 with recombinant human 5-LOX
[5] = mean ± SEM, n = 4, read-out: dissociation constant (Kd) by ITC
[6] = read-out: dissociation constant (Kd) by ITC

| Tm of LTA4H upon the addition of inhibitor (LTA4H [1]) | Kd (LTA4H [1]; [3]) | IC50 (5-LOX; [4]) | Kd (LTA4H [2]; [5]) | Kd (LTA4H [2]; [6]) | Compound | Kd (LTA4H [1]) | IC50 (5-LOX; IC50 with recombinant human 5-LOX) | Kd (LTA4H [2]; dissociation constant (Kd) by ITC) | Kd (LTA4H [2]; dissociation constant (Kd) by ITC, mean ± SEM, n = 4) |
| --- | --- | --- | --- | --- | --- | --- | --- | --- | --- |
| 60.7 °C | 510 ± 40 nM | 33600 nM and > 30000 nM | 326 ± 29.4 nM | 330 nM | Nc1nc(-c2ccc(Cc3ccccc3)cc2)co1 [TTO, 4-(4-benzylphenyl) oxazol-2-amine] | – | – | – | – |
| 61.2 °C | 240 ± 10 nM | 6700 nM and ~6000 nM | 248 ± 53.2 nM | 250 nM | Nc1nc(-c2ccc(Cc3ccccc3)cc2)cs1 [ARM1, 4-(4-benzylphenyl) thiazol-2-amine, reference compound] | – | – | – | – |

| Compound | Tm of LTA4H upon the addition of inhibitor (LTA4H [1]) | Kd (LTA4H [1]; [3]) | IC50 (5-LOX; [4]) | Kd (LTA4H [2]; [5]) | Kd (LTA4H [2]; [6]) | Kd (LTA4H [1]) | IC50 (5-LOX; IC50 with recombinant human 5-LOX) | Kd (LTA4H [2]; dissociation constant (Kd) by ITC) | Kd (LTA4H [2]; dissociation constant (Kd) by ITC, mean ± SEM, n = 4) |
| --- | --- | --- | --- | --- | --- | --- | --- | --- | --- |
| Nc1nc(-c2ccc(Cc3ccccc3)cc2)c[se]1 [TTSe, 4-(4-benzylphenyl) selenazol-2-amine] | 61.9 °C | – | – | – | – | 300 ± 20 nM | 19900 nM and ~20000 nM | 370 nM | 367 ± 10.7 nM |
